Results on one compound are retold here after publication PMC7044277 (Nature Communications, 2020).

“And” between values parts separate entries of the source, which are not always exact repeats. Equal values may be shown once.

Holding throughout (format): cell-based
The target of assay [1] is T1, 320 non-olfactory GPCRs (Homo sapiens, UniProt O00254).
T1 construct: expressed in transfected cells; host or cells: HTLA cells

Assay [2] concerns the target T2, 320 non-olfactory GPCRs (Homo sapiens, UniProt O15552).
T2 construct: expressed in transfected cells; host or cells: HTLA cells

Assay [3] has as its target 320 non-olfactory GPCRs (Homo sapiens, UniProt Q13258). Particulars: receptor PTGDR; replicate values, Fig_4g.
Assay [4] has as its target T3, 320 non-olfactory GPCRs (Homo sapiens, UniProt Q969V1).
T3 construct: expressed in transfected cells; host or cells: HTLA cells
Particulars: receptor MCHR2R; replicate values, Fig_4g.
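Throughout, for Fold of Basal: compound tested at 1 µM final concentration.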
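Throughout, for GPCRome agonism screen response: fold over basal response of each receptor without drug.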

T1 sequence (O00254 22-374): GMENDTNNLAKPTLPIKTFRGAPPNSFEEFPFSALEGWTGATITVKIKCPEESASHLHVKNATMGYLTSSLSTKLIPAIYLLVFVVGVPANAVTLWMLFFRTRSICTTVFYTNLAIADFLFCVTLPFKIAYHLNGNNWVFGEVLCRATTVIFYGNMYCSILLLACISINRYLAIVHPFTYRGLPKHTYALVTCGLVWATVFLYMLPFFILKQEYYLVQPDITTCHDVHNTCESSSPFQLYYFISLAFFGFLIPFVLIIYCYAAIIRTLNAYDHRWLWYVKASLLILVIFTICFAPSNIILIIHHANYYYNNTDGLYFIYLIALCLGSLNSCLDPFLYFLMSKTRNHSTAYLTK
T3 sequence (Q969V1 whole entry): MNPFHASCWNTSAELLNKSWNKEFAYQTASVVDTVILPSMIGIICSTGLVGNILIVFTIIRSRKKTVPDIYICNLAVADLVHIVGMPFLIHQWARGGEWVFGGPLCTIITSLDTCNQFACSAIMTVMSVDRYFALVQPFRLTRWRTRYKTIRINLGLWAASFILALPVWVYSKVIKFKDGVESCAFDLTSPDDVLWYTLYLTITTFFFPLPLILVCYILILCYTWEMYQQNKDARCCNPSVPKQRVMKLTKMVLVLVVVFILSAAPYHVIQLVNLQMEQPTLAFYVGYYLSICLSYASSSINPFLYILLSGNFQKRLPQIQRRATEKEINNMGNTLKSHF
Chain of 320 non-olfactory GPCRs (Homo sapiens, UniProt Q13258) (Q13258 whole entry): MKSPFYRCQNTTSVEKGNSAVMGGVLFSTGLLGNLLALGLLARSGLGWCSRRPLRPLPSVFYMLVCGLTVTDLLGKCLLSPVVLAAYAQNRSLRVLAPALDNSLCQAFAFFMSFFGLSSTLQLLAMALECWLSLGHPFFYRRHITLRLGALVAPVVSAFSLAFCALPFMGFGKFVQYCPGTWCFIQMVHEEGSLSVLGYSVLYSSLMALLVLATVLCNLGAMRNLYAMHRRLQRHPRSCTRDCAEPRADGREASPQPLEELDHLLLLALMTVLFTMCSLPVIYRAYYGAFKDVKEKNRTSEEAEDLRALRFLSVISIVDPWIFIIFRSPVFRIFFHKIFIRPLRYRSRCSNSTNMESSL
T2 sequence (O15552 whole entry): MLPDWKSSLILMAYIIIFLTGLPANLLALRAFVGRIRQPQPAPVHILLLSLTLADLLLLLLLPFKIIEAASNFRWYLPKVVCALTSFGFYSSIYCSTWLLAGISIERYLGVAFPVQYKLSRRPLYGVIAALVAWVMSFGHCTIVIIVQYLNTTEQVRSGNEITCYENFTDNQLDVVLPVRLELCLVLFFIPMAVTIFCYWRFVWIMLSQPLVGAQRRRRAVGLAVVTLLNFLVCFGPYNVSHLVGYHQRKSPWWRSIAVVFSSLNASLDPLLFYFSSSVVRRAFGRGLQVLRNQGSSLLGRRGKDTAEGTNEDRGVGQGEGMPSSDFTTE

Turning to `CCOc1cccc2cc(C(C)NCC3(O)CCCCC3)oc12` (stereo not shown) [O4LE6], the “Fold of Basal” value at 320 non-olfactory GPCRs [1] was 0.8171 and 1.363 and 1.064 and 0.8535; at 320 non-olfactory GPCRs [2] it was 0.7744 and 0.8932 and 0.7484 and 0.9767. In addition, the “GPCRome agonism screen response” value at 320 non-olfactory GPCRs [3] was 1.067 and 0.797 and 0.4909 and 0.5007; on 320 non-olfactory GPCRs [4], 1.156 and 0.4645 and 1.04 and 0.6466.
